Experimental data reported in ChEMBL document CHEMBL3045059, “Efficacy of ketoenols on insecticide resistant field populations of two-spotted spider mite Tetranychus urticae and sweet potato whitefly Bemisia tabaci from Greece” (2012).
In brackets after ≈: the same amount, converted by molar mass.

Assays:
Type in all cases: functional
Bemisia tabaci [1] = assay: Resistance ratio, ratio of imidacloprid LC50 to compound LC50 for second-instar nymph stage of Bemisia tabaci (sweet potato whitefly) greenhouse population GR165
Bemisia tabaci [2] = assay: Acaricidal activity against second-instar nymph stage of Bemisia tabaci (sweet potato whitefly) greenhouse population GR191 in cotton leaves assessed as mortality incubated for 5 secs measured after 10 to 12 days
Bemisia tabaci [3] = assay: Acaricidal activity against second-instar nymph stage of Bemisia tabaci (sweet potato whitefly) greenhouse population GR164 in cotton leaves assessed as survival of the parent population at 30 mg/l incubated for 5 secs measured after 10 to 12 days by applying constant selection pressure under laboratory conditions
Bemisia tabaci [4] = assay: Resistance ratio, ratio of alpha-cypermethrin LC50 to compound LC50 for second-instar nymph stage of Bemisia tabaci (sweet potato whitefly) laboratory strain GRMAL-RP
Bemisia tabaci [5] = assay: Resistance ratio, ratio of imidacloprid LC50 to compound LC50 for second-instar nymph stage of Bemisia tabaci (sweet potato whitefly) greenhouse population GR191
Bemisia tabaci [6] = assay: Acaricidal activity against second-instar nymph stage of Bemisia tabaci (sweet potato whitefly) laboratory strain GRMAL-RP in cotton leaves assessed as mortality incubated for 5 secs measured after 10 to 12 days
Bemisia tabaci [7] = assay: Acaricidal activity against second-instar nymph stage of Bemisia tabaci (sweet potato whitefly) greenhouse population GR187 in cotton leaves assessed as mortality incubated for 5 secs measured after 10 to 12 days
Bemisia tabaci [8] = assay: Resistance ratio, ratio of alpha-cypermethrin LC50 to compound LC50 for second-instar nymph stage of Bemisia tabaci (sweet potato whitefly) greenhouse population GR188
Bemisia tabaci [9] = assay: Resistance ratio, ratio of imidacloprid LC50 to compound LC50 for second-instar nymph stage of Bemisia tabaci (sweet potato whitefly) greenhouse population GR194
Bemisia tabaci [10] = assay: Resistance ratio, ratio of imidacloprid LC50 to compound LC50 for second-instar nymph stage of Bemisia tabaci (sweet potato whitefly) greenhouse population GR192
Bemisia tabaci [11] = assay: Resistance ratio, ratio of alpha-cypermethrin LC50 to compound LC50 for second-instar nymph stage of Bemisia tabaci (sweet potato whitefly) field population GR259
Bemisia tabaci [12] = assay: Resistance ratio, ratio of imidacloprid LC50 to compound LC50 for second-instar nymph stage of Bemisia tabaci (sweet potato whitefly) field population GR163
Bemisia tabaci [13] = assay: Acaricidal activity against second-instar nymph stage of Bemisia tabaci (sweet potato whitefly) greenhouse population GR258 in cotton leaves assessed as mortality incubated for 5 secs measured after 10 to 12 days
Bemisia tabaci [14] = assay: Acaricidal activity against second-instar nymph stage of Bemisia tabaci (sweet potato whitefly) laboratory strain GRMAL-RN in cotton leaves assessed as mortality incubated for 5 secs measured after 10 to 12 days
Bemisia tabaci [15] = assay: Acaricidal activity against second-instar nymph stage of Bemisia tabaci (sweet potato whitefly) field population GR259 in cotton leaves assessed as mortality incubated for 5 secs measured after 10 to 12 days
Bemisia tabaci [16] = assay: Resistance ratio, ratio of imidacloprid LC50 to compound LC50 for second-instar nymph stage of Bemisia tabaci (sweet potato whitefly) greenhouse population GR164
Bemisia tabaci [17] = assay: Resistance ratio, ratio of imidacloprid LC50 to compound LC50 for second-instar nymph stage of Bemisia tabaci (sweet potato whitefly) greenhouse population GR187
Bemisia tabaci [18] = assay: Acaricidal activity against second-instar nymph stage of Bemisia tabaci (sweet potato whitefly) field population GR163 in cotton leaves assessed as mortality incubated for 5 secs measured after 10 to 12 days
Bemisia tabaci [19] = assay: Resistance ratio, ratio of imidacloprid LC50 to compound LC50 for second-instar nymph stage of Bemisia tabaci (sweet potato whitefly) laboratory strain GRMAL-RN
Bemisia tabaci [20] = assay: Acaricidal activity against second-instar nymph stage of Bemisia tabaci (sweet potato whitefly) greenhouse population GR164 in cotton leaves assessed as mortality incubated for 5 secs measured after 10 to 12 days
Bemisia tabaci [21] = assay: Acaricidal activity against second-instar nymph stage of Bemisia tabaci (sweet potato whitefly) greenhouse population GR165 in cotton leaves assessed as mortality incubated for 5 secs measured after 10 to 12 days
Bemisia tabaci [22] = assay: Resistance ratio, ratio of alpha-cypermethrin LC50 to compound LC50 for second-instar nymph stage of Bemisia tabaci (sweet potato whitefly) greenhouse population GR192
Bemisia tabaci [23] = assay: Acaricidal activity against second-instar nymph stage of Bemisia tabaci (sweet potato whitefly) greenhouse population GR194 in cotton leaves assessed as mortality incubated for 5 secs measured after 10 to 12 days
Bemisia tabaci [24] = assay: Resistance ratio, ratio of imidacloprid LC50 to compound LC50 for second-instar nymph stage of Bemisia tabaci (sweet potato whitefly) greenhouse population GR188
Bemisia tabaci [25] = assay: Resistance ratio, ratio of alpha-cypermethrin LC50 to compound LC50 for second-instar nymph stage of Bemisia tabaci (sweet potato whitefly) greenhouse population GR194
Bemisia tabaci [26] = assay: Resistance ratio, ratio of alpha-cypermethrin LC50 to compound LC50 for second-instar nymph stage of Bemisia tabaci (sweet potato whitefly) field population GR157
Bemisia tabaci [27] = assay: Resistance ratio, ratio of imidacloprid LC50 to compound LC50 for second-instar nymph stage of Bemisia tabaci (sweet potato whitefly) field population GR157
Bemisia tabaci [28] = assay: Resistance ratio, ratio of imidacloprid LC50 to compound LC50 for second-instar nymph stage of Bemisia tabaci (sweet potato whitefly) greenhouse population GR258
Bemisia tabaci [29] = assay: Resistance ratio, ratio of alpha-cypermethrin LC50 to compound LC50 for second-instar nymph stage of Bemisia tabaci (sweet potato whitefly) greenhouse population GR191
Bemisia tabaci [30] = assay: Resistance ratio, ratio of alpha-cypermethrin LC50 to compound LC50 for second-instar nymph stage of Bemisia tabaci (sweet potato whitefly) greenhouse population GR165
Bemisia tabaci [31] = assay: Resistance ratio, ratio of alpha-cypermethrin LC50 to compound LC50 for second-instar nymph stage of Bemisia tabaci (sweet potato whitefly) greenhouse population GR164
Bemisia tabaci [32] = assay: Resistance ratio, ratio of imidacloprid LC50 to compound LC50 for second-instar nymph stage of Bemisia tabaci (sweet potato whitefly) field population GR259
Bemisia tabaci [33] = assay: Resistance ratio, ratio of alpha-cypermethrin LC50 to compound LC50 for second-instar nymph stage of Bemisia tabaci (sweet potato whitefly) greenhouse population GR258
Bemisia tabaci [34] = assay: Resistance ratio, ratio of alpha-cypermethrin LC50 to compound LC50 for second-instar nymph stage of Bemisia tabaci (sweet potato whitefly) greenhouse population GR187
Bemisia tabaci [35] = assay: Acaricidal activity against second-instar nymph stage of Bemisia tabaci (sweet potato whitefly) greenhouse population GR192 in cotton leaves assessed as mortality incubated for 5 secs measured after 10 to 12 days
Bemisia tabaci [36] = assay: Acaricidal activity against second-instar nymph stage of Bemisia tabaci (sweet potato whitefly) greenhouse population GR164 in cotton leaves assessed as survival at 30 mg/l at the last selection cycle of four generations incubated for 5 secs measured after 10 to 12 days by applying constant selection pressure under laboratory conditions
Bemisia tabaci [37] = assay: Acaricidal activity against second-instar nymph stage of Bemisia tabaci (sweet potato whitefly) greenhouse population GR188 in cotton leaves assessed as mortality incubated for 5 secs measured after 10 to 12 days
Bemisia tabaci [38] = assay: Acaricidal activity against second-instar nymph stage of Bemisia tabaci (sweet potato whitefly) field population GR157 in cotton leaves assessed as mortality incubated for 5 secs measured after 10 to 12 days
Bemisia tabaci [39] = assay: Resistance ratio, ratio of alpha-cypermethrin LC50 to compound LC50 for second-instar nymph stage of Bemisia tabaci (sweet potato whitefly) field population GR163

Cc1cc(C)c(C2=C(OC(=O)CC(C)(C)C)C3(CCCC3)OC2=O)c(C)c1 [SPIROMESIFEN]
RatioLC50 (Bemisia tabaci [1]): 73 | LC95 (Bemisia tabaci [2]): 18.62 µg/mL (≈ 50.3 µM) | LC50 (Bemisia tabaci [2]; Bemisia tabaci, GR191, Nymph stage): 5.1 µg/mL (≈ 13.8 µM) | survival at 30 µg/mL (Bemisia tabaci [3]): 27% | RatioLC50 (Bemisia tabaci [4]): >621 | RatioLC50 (Bemisia tabaci [5]): 120 | LC95 (Bemisia tabaci [6]): 50.31 µg/mL (≈ 136 µM) | LC50 (Bemisia tabaci [6]; Bemisia tabaci, GRMAL-RP, Nymph stage): 1.1 µg/mL (≈ 2.97 µM) | LC95 (Bemisia tabaci [7]): 24.95 µg/mL (≈ 67.3 µM) | LC50 (Bemisia tabaci [7]; Bemisia tabaci, GR187, Nymph stage): 4.6 µg/mL (≈ 12.4 µM) | RatioLC50 (Bemisia tabaci [8]): 105 | RatioLC50 (Bemisia tabaci [9]): 247 | RatioLC50 (Bemisia tabaci [10]): 323 | RatioLC50 (Bemisia tabaci [11]): 741 | RatioLC50 (Bemisia tabaci [12]): 46 | LC95 (Bemisia tabaci [13]): 49.19 µg/mL (≈ 133 µM) | LC50 (Bemisia tabaci [13]; Bemisia tabaci, GR258, Nymph stage): 12 µg/mL (≈ 32.4 µM) | LC95 (Bemisia tabaci [14]): 47.61 µg/mL (≈ 129 µM) | LC50 (Bemisia tabaci [14]; Bemisia tabaci, GRMAL-RN, Nymph stage): 6.7 µg/mL (≈ 18.1 µM) | LC95 (Bemisia tabaci [15]): 30.74 µg/mL (≈ 83 µM) | LC50 (Bemisia tabaci [15]; Bemisia tabaci, GR259, Nymph stage): 7.9 µg/mL (≈ 21.3 µM) | RatioLC50 (Bemisia tabaci [16]): 7 | RatioLC50 (Bemisia tabaci [17]): 94 | LC95 (Bemisia tabaci [18]): 85.08 µg/mL (≈ 230 µM) | LC50 (Bemisia tabaci [18]; Bemisia tabaci, GR163, Nymph stage): 11.6 µg/mL (≈ 31.3 µM) | RatioLC50 (Bemisia tabaci [19]): 958 | LC95 (Bemisia tabaci [20]): 69.44 µg/mL (≈ 187 µM) | LC50 (Bemisia tabaci [20]; Bemisia tabaci, GR164, Nymph stage): 12 µg/mL (≈ 32.4 µM) | LC95 (Bemisia tabaci [21]): 37.16 µg/mL (≈ 100 µM) | LC50 (Bemisia tabaci [21]; Bemisia tabaci, GR165, Nymph stage): 4.5 µg/mL (≈ 12.1 µM) | RatioLC50 (Bemisia tabaci [22]): 179 | LC95 (Bemisia tabaci [23]): 49.23 µg/mL (≈ 133 µM) | LC50 (Bemisia tabaci [23]; Bemisia tabaci, GR194, Nymph stage): 6.4 µg/mL (≈ 17.3 µM) | RatioLC50 (Bemisia tabaci [24]): 353 | RatioLC50 (Bemisia tabaci [25]): 142 | RatioLC50 (Bemisia tabaci [26]): 426 | RatioLC50 (Bemisia tabaci [27]): 88 | RatioLC50 (Bemisia tabaci [28]): 369 | RatioLC50 (Bemisia tabaci [29]): 179 | RatioLC50 (Bemisia tabaci [30]): 256 | RatioLC50 (Bemisia tabaci [31]): 42 | RatioLC50 (Bemisia tabaci [32]): 323 | RatioLC50 (Bemisia tabaci [33]): 1190 | RatioLC50 (Bemisia tabaci [34]): 101 | LC95 (Bemisia tabaci [35]): 44.79 µg/mL (≈ 121 µM) | LC50 (Bemisia tabaci [35]; Bemisia tabaci, GR192, Nymph stage): 14 µg/mL (≈ 37.8 µM) | survival at 30 µg/mL (Bemisia tabaci [36]): 13% | LC95 (Bemisia tabaci [37]): 21.41 µg/mL (≈ 57.8 µM) | LC50 (Bemisia tabaci [37]; Bemisia tabaci, GR188, Nymph stage): 6.1 µg/mL (≈ 16.5 µM) | LC95 (Bemisia tabaci [38]): 139.9 µg/mL (≈ 378 µM) | LC50 (Bemisia tabaci [38]; Bemisia tabaci, GR157, Nymph stage): 5.4 µg/mL (≈ 14.6 µM) | RatioLC50 (Bemisia tabaci [39]): 478
